This is an account of results in patent US20180066295A1, “DEAMINATION OF ORGANOPHOSPHORUS-NUCLEOSIDES” (INSTITUT UNIV. DE CIÈNCIA I TECNOLOGIA, S. A., priority 2015, published 2018).

Counter-ions that a name gives are not always drawn. Like-named read-outs stand apart in the source and are kept apart here.

One test has as its system cytidine deaminase. Particulars: 37° C.; for yield of deaminated product (HPLC, crude mixture): 5 hours. As to the method:
The reaction was performed at 37° C. during […] and stopped with HCl. Then, the crude reaction was filtered through a 10 KDa membrane, and a portion was diluted and analyzed by HPLC under UV-DAD (ultraviolet-diode array detection). Product identification was performed by comparison to a standard sample.
After 5 hours, the reaction was stopped with HCl and a portion of the reaction was diluted and filtered for HPLC and MS analysis.

The target of another test is T1, adenosine deaminase (Homo sapiens, UniProt P00813).
T1 sequence (P00813 1-363): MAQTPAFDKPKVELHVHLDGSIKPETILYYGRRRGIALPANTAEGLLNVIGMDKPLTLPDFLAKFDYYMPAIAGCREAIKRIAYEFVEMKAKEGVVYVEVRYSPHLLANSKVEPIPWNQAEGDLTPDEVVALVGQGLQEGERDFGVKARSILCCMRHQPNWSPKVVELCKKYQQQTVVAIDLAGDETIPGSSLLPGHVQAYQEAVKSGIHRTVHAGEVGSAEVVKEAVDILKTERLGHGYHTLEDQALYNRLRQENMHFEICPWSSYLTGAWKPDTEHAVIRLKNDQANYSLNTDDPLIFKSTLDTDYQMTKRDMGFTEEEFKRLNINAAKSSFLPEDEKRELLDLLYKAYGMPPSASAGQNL
Particulars: commercially available purified enzyme, analytical conditions; cited from earlier work.

[1] abbreviates: 100 mM substrate, KH2PO4 100 mM pH 7.0, 36-240 AU cytidine deaminase.
Where [2] appears, read: 20 mM substrate, KH2PO4 100 mM pH 7.0, 90 AU cytidine deaminase.

For the molecule `COC(=O)[C@@H](NP(=O)(OC[C@H]1O[C@@H](n2ccc(N)nc2=O)C(F)(F)[C@@H]1O)Oc1ccccc1)C(C)C` (stereo partly drawn) [compound 17, methyl ((((2R,3R,5R)-5-(4-amino-2-oxopyrimidin-1 (2H)-yl)-4,4-difluoro-3-hydroxytetrahydrofuran-2-yl)methoxy)(phenoxy)phosphoryl)-L-valinate], the “yield of deaminated product (HPLC, crude mixture)” value (“yield … (HPLC, crude mixture)” below) in the test with cytidine deaminase (setting [1]) is on record as “quantitative yield”.

Consider `COC(=O)[C@@H](NP(=O)(OC[C@H]1O[C@@H](n2ccc(N)nc2=O)[C@H](O)[C@@H]1O)Oc1ccccc1)C(C)C` (stereo partly drawn) [compound 12, methyl ((((2R,3S,4R,5R)-5-(4-amino-2-oxopyrimidin-1 (2H)-yl)-3,4-dihydroxytetrahydrofuran-2-yl)methoxy)(phenoxy)phosphoryl)-L-valinate hydrochloride], for which, in the test with cytidine deaminase (setting [2]), the “yield … (HPLC, crude mixture)” value is recorded as above 70%.

`CC(C)OC(=O)[C@H](C)NP(=O)(OC[C@H]1O[C@@H](n2ccc(N)nc2=O)[C@H](O)[C@@H]1O)Oc1ccccc1` (stereo partly drawn) [compound 14, isopropyl ((((2R,3S,4R,5R)-5-(4-amino-2-oxopyrimidin-1(2H)-yl)-3,4-dihydroxytetrahydrofuran-2-yl)methoxy)(phenoxy)phosphoryl)-L-alaninate hydrochloride]: the “yield … (HPLC, crude mixture)” value in the test with cytidine deaminase (setting [2]) is “quantitatively”.

As to `COC(=O)[C@H](CC(C)C)NP(=O)(OC[C@H]1O[C@@H](n2ccc(N)nc2=O)[C@H](O)[C@@H]1O)Oc1ccccc1` (stereo partly drawn) [compound 10, methyl ((((2R,3S,4R,5R)-5-(4-amino-2-oxopyrimidin-1(2H)-yl)-3,4-dihydroxytetrahydrofuran-2-yl)methoxy)(phenoxy)phosphoryl)-L-leucinate hydrochloride], in the test on cytidine deaminase (setting [2]), the “yield … (HPLC, crude mixture)” value was above 70%.

Turning to `COC(=O)[C@@H](NP(=O)(OC[C@H]1O[C@@H](n2cnc(N)nc2=O)C[C@@H]1O)Oc1ccccc1)C(C)C` (stereo partly drawn) [compound 21, methyl ((((2R,3S,5R)-5-(4-amino-2-oxo-1,3,5-triazin-1(2H)-yl)-3-hydroxytetrahydrofuran-2-yl)methoxy)(phenoxy)phosphoryl)-L-valinate], the “yield of deaminated product (HPLC)” value in the test with cytidine deaminase (pH 6, 13 mM substrate, KH2PO4 100 mM, 66 AU cytidine deaminase, 24 hours) is “higher than 90%”. Also, the “conversion into deaminated product” value in the test on cytidine deaminase (pH 7, 13 mM substrate, KH2PO4 100 mM, 66 AU cytidine deaminase, 24 hours) was “quantitatively”; with cytidine deaminase (pH 8, 13 mM substrate, KH2PO4 100 mM, 66 AU cytidine deaminase, 24 hours) it was “quantitatively”.

Consider `CC(C)OC(=O)[C@H](C)NP(=O)(OC[C@H]1O[C@@H](n2ccc(N)nc2=O)C(F)(F)[C@@H]1O)Oc1ccccc1` (stereo partly drawn) [compound 18, isopropyl ((((2R,3R,5R)-5-(4-amino-2-oxopyrimidin-1 (2H)-yl)-4,4-difluoro-3-hydroxytetrahydrofuran-2-yl)methoxy)(phenoxy)phosphoryl)-L-alaninate], for which, in the test with cytidine deaminase (setting [1]), the “yield … (HPLC, crude mixture)” value is on record as “quantitative yield”.

Turning to `Nc1ncnc2c1ncn2[C@H]1C[C@H](O)[C@@H](CO)O1` [deoxyadenosine], at adenosine deaminase, the deamination yield is 59%.

In the case of `COC(=O)[C@H](C)NP(=O)(OC[C@H]1O[C@@H](n2ccc(N)nc2=O)[C@H](O)[C@@H]1O)Oc1ccccc1.Cl` (stereo partly drawn) [compound 14-Me, methyl ((((2R,3S,4R,5R)-5-(4-amino-2-oxopyrimidin-1 (2H)-yl)-3,4-dihydroxytetrahydrofuran-2-yl)methoxy)(phenoxy)phosphoryl)-L-alaninate hydrochloride], the “yield … (HPLC, crude mixture)” value in the test on cytidine deaminase (setting [2]) is above 80%.

As for `COC(=O)[C@H](CC(C)C)NP(=O)(OC[C@H]1O[C@@H](n2ccc(N)nc2=O)C(F)(F)[C@@H]1O)Oc1ccccc1` (stereo partly drawn) [compound 16, methyl ((((2R,3R,5R)-5-(4-amino-2-oxopyrimidin-1(2H)-yl)-4,4-difluoro-3-hydroxytetrahydrofuran-2-yl)methoxy)(phenoxy)phosphoryl)-L-leucinate], in the test on cytidine deaminase (setting [1]), the “yield … (HPLC, crude mixture)” value is on record as “quantitatively”.
